Columns and labels:
[1] = test system: HEp-2 cells; experiment: Cytotoxicity in parallel to the RSV-A assay (no virus), ATPlite readout; assay type: cell-based, human
Method in brief: (§1)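 HEp-2 cells at 8,000/well in DMEM with 10% heat-inactivated FBS received 2-fold serial compound dilutions in duplicate and growth media in place of virus. After 5 days cell viability was read as ATP content by ATPlite luminescence to give CC50.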

[2] = test system: RSV genotype B, strain 9320; experiment: RSV-B assay: A549 cells infected with RSV-B, qPCR or ATPlite readout; assay type: cell-based; details: human respiratory syncytial virus, A549, 144 h, read-out: Human RSV-B EC50
Text: HEp-2 cells, (originally derived from tumors grown in irradiated-cortisonised weanling rats that had been injected with epidermoid carcinoma tissue from a person's larynx, but later found to be indistinguishable from HeLa cells by PCR DNA analysis), were used for the culturing of genotype B, strain 9320. Flasks were inoculated with RSV-B and viral stocks were collected once cytopathic effect (CPE) was greater than […]. Viral stocks in 25% sucrose media were snap frozen using liquid nitrogen to increase viral stability. Viral stock titers were quantified by tissue culture infectious dose 50% (TCID50) using 8,000 cells per well and 5-fold viral dilutions across a 96-well plate, cultured for 4 days. Viral stock titers were also quantified by a plaque forming unit assay, as described elsewhere.
The assay is run as follows: A549 cells (originally derived through explant culture from a person's carcinomatous lung tissue) are seeded into the inner 60 wells of a 96-well plate at 3,000 cells per well in a volume of 50 μL using A549 growth media (F-12K Media, 1% Penn/Strep, 1% nonessential amino acids, 10% heat-inactivated FBS). 2-fold serial dilutions of control and test compounds are added to the wells in duplicate in a total volume of 25 μL. Viral stock is then added to the wells at a multiplicity of infection (MOI) of 0.5 in a volume of 25 μL, bringing the total volume of each well to 100 μL. The MOI is calculated using the PFU/mL, or TCID50 if unavailable. Each 96-well plate has a control column of 6 wells with cells and virus but no compound (negative control, max CPE), a column with cells but no compound or virus (positive control, minimum CPE), and a column with no cells or virus or compound (background plate/reagent control). The control wells with cells but no virus are given an additional 25 μL of growth media containing an equal quantity of sucrose as those wells receiving the viral stock in order to keep consistent in media and volume conditions. The outer wells of the plate are filled with 125 μL of moat media (DMEM, 1% Penn/Strep) to act as a thermal and evaporative moat around the test wells. 6 days post infection, the plates are read using qPCR or ATP lite (50 μL added per well), which quantifies the amount of ATP (a measure of cell health) present in each well. Assay plates treated with APTlite are read using the Envision luminometer. […] EC50 ranges are as follows: A <0.4 μM; B 0.4-0.8 μM; C >0.8 μM.

[3] = test system: genotype A, "Long" strain RSV; experiment: RSV-A assay: CPE protection in HEp-2 cells, ATPlite readout; assay type: cell-based, human respiratory syncytial virus; details: human respiratory syncytial virus, HEp-2, read-out: Human RSV-A (“Long” strain) EC50
Method in brief: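 EC50 derives from ATPlite luminescence after 5-day culture of RSV Long-infected (MOI 0.1) HEp-2 cells, seeded 8,000/well, exposed to duplicate 2-fold compound series. CC50 comes from an identical plate receiving medium instead of virus.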

[4] = Cytotoxicity in parallel to the RSV-A assay (no virus), ATPlite readout; assay type: cell-based, human; details: human, HEp-2 cells (uninfected)
Method in brief: as §1

For `O=C1Nc2ccccc2C(c2ccccc2)=N[C@@H]1Nc1nnc(-c2ccc(F)cc2)o1` [Example 7a], the CC50 [1] was greater than 50 µM, the EC50 [2] was greater than 0.8 µM and the EC50 [3] was 0.4 to 0.8 µM.

In the case of `O=C1Nc2ccccc2C(c2ccccc2)=NC1Nc1nnc(-c2ccc3ncsc3c2)o1` (centres unmarked) [Example 42], the CC50 at 5 days [4] is reported as greater than 50 µM and the EC50 [3] is reported as 0.4 to 0.8 µM.

`C[C@@H]1COCCN1c1ncccc1-c1nnc(NC2N=C(c3ccccc3)c3ccccc3NC2=O)o1` (some centres unmarked) [Example 245] gave an EC50 [2] of 0.4 to 0.8 µM and an EC50 [3] of less than 0.4 µM.

With `O=C1Nc2ccccc2C(c2ccccc2)=N[C@@H]1Nc1nnc(-c2ncc(C(F)(F)F)cc2N2C3CCC2COC3)o1` [Example 250] the EC50 [2] was less than 0.4 µM and the EC50 [3] was less than 0.4 µM.

`O=C1Nc2ccccc2C(c2ccccc2)=N[C@@H]1Nc1nnc(-c2ncc(C(F)(F)F)cc2N2CC3CCC(C2)O3)o1` [Example 251] gave an EC50 [2] of less than 0.4 µM and an EC50 [3] of less than 0.4 µM.

In the case of `Cc1ccc(-c2nnc(N[C@H]3N=C(c4ccccc4)c4ccccc4NC3=O)o2)c(N2CCOCC2)n1` [Example 252], the EC50 [2] is reported as less than 0.4 µM and the EC50 [3] is reported as less than 0.4 µM.

In the case of `C[C@H]1CN(c2ncccc2-c2nnc(NC3N=C(c4ccccc4)c4ccccc4NC3=O)o2)CCO1` (some centres unmarked) [Example 263], the EC50 [2] is reported as 0.4 to 0.8 µM and the EC50 [3] is reported as 0.4 to 0.8 µM.

With `COC1CCN(c2cc(C(F)(F)F)cnc2-c2nnc(N[C@H]3N=C(c4ccccc4)c4ccccc4NC3=O)o2)CC1` [Example 268] the EC50 [2] was 0.4 to 0.8 µM and the EC50 [3] was greater than 0.8 µM.

`O=C1Nc2ccccc2C(c2ccccc2)=N[C@@H]1Nc1nnc(-c2ncc(C(F)(F)F)cc2N2CCC(F)CC2)o1` [Example 269] gave an EC50 [2] of 0.4 to 0.8 µM and an EC50 [3] greater than 0.8 µM.

Work on `Cc1nc(-c2nnc(N[C@H]3N=C(c4ccccc4)c4ccccc4NC3=O)o2)c(N2CCOCC2)s1` [Example 272] yielded an EC50 [2] of less than 0.4 µM and an EC50 [3] of less than 0.4 µM.

With `O=C1Nc2ccccc2C(c2ccccc2)=N[C@@H]1Nc1nnc(-c2ccc(C(F)(F)F)nc2N2CC3CCC(C2)O3)o1` [Example 276] the EC50 [2] was greater than 0.8 µM and the EC50 [3] was 0.4 to 0.8 µM.

Work on `C[C@@H]1CN(c2cc(C(F)(F)F)cnc2-c2nnc(N[C@H]3N=C(c4ccccc4)c4ccccc4NC3=O)o2)CCO1` [Example 277] yielded an EC50 [2] of less than 0.4 µM and an EC50 [3] of less than 0.4 µM.

In the case of `C[C@H]1CN(c2cc(C(F)(F)F)cnc2-c2nnc(N[C@H]3N=C(c4ccccc4)c4ccccc4NC3=O)o2)CCO1` [Example 278], the EC50 [2] is reported as less than 0.4 µM and the EC50 [3] is reported as less than 0.4 µM.

`COCCOc1cc(C#N)ccc1-c1nnc(N[C@H]2N=C(c3ccccc3)c3ccccc3NC2=O)o1` [Example 300] showed an EC50 [2] of less than 0.4 µM and an EC50 [3] of less than 0.4 µM.

In the case of `N#CCCNc1cc(C(F)(F)F)cnc1-c1nnc(N[C@H]2N=C(c3ccccc3)c3ccccc3NC2=O)o1` [Example 303], the EC50 [2] is reported as less than 0.4 µM and the EC50 [3] is reported as less than 0.4 µM.

`N#Cc1cnc(-c2nnc(N[C@H]3N=C(c4ccccc4)c4ccccc4NC3=O)o2)c(N2CC3CCC(C2)O3)c1` [Example 304] gave an EC50 [2] of less than 0.4 µM and an EC50 [3] of less than 0.4 µM.

For `O=C1Nc2ccccc2C(c2ccccc2)=N[C@@H]1Nc1nnc(-c2nc3ccccc3cc2N2CCOCC2)o1` [Example 322], the EC50 [2] was less than 0.4 µM and the EC50 [3] was less than 0.4 µM.

For `O=C1Nc2ccccc2C(c2ccccc2)=N[C@@H]1Nc1nnc(-c2ncsc2N2CCOCC2)o1` [Example 336], the EC50 [2] was less than 0.4 µM and the EC50 [3] was less than 0.4 µM.

Compound `O=C1Nc2ccccc2C(c2ccccc2)=N[C@@H]1Nc1nnc(-c2nc(C3CC3)sc2N2CCOCC2)o1` [Example 338] has an EC50 [2] of less than 0.4 µM and an EC50 [3] of less than 0.4 µM.

Work on `O=C1Nc2ccccc2C(c2ccccc2)=N[C@@H]1Nc1nnc(-c2nc(C(F)(F)F)sc2N2CCOCC2)o1` [Example 339] yielded an EC50 [2] of less than 0.4 µM and an EC50 [3] of less than 0.4 µM.

Compound `O=C1Nc2ccccc2C(c2ccccc2)=N[C@@H]1Nc1nnc(-c2nc(-c3ccccc3)sc2N2CCOCC2)o1` [Example 340] has an EC50 [2] of less than 0.4 µM and an EC50 [3] of less than 0.4 µM.

Work on `O=C1Nc2ccccc2C(c2ccccc2)=N[C@@H]1Nc1nnc(-c2nc(-c3ccccn3)sc2N2CCOCC2)o1` [Example 341] yielded an EC50 [2] of less than 0.4 µM and an EC50 [3] of less than 0.4 µM.

In the case of `O=C1Nc2ccccc2C(c2ccccc2)=N[C@@H]1Nc1nnc(-c2csc(N3CCOCC3)n2)o1` [Example 351], the EC50 [2] is reported as 0.4 to 0.8 µM and the EC50 [3] is reported as 0.4 to 0.8 µM.

`O=C1Nc2c(F)cccc2C(c2ccccc2)=N[C@@H]1Nc1nnc(-c2ccccc2N2CCOCC2)o1` [Example 355a] gave an EC50 [2] of less than 0.4 µM and an EC50 [3] of less than 0.4 µM.

Work on `O=C1Nc2ccccc2C(c2ccccc2)=NC1Nc1nnc(-c2ccc(-n3cccn3)cc2)[nH]1` (centres unmarked) [Example 364] yielded an EC50 [2] of 0.4 to 0.8 µM and an EC50 [3] of less than 0.4 µM.

`N#Cc1ccc(-c2ccc(NC3N=C(c4ccccc4)c4ccccc4NC3=O)nn2)cc1` (centres unmarked) [Example 377] gave an EC50 [2] of less than 0.4 µM and an EC50 [3] of less than 0.4 µM.

In the case of `CCc1nc(-c2nnc(N[C@H]3N=C(c4ccccc4)c4ccccc4NC3=O)o2)c(N2CCOCC2)s1` [Example 385], the EC50 [2] is reported as less than 0.4 µM and the EC50 [3] is reported as less than 0.4 µM.

Compound `O=C1Nc2ccccc2C(c2ccccc2)=N[C@@H]1Nc1nnc(-c2nc(C3CCC3)sc2N2CCOCC2)o1` [Example 387] has an EC50 [2] of less than 0.4 µM and an EC50 [3] of less than 0.4 µM.

In the case of `O=C1Nc2ccccc2C(c2ccccc2)=N[C@@H]1Nc1nnc(-c2nc(-c3cccnc3)sc2N2CCOCC2)o1` [Example 388], the EC50 [2] is reported as less than 0.4 µM and the EC50 [3] is reported as less than 0.4 µM.

With `CC(C)n1cc(-c2nnc(N[C@H]3N=C(c4ccccc4)c4ccccc4NC3=O)o2)c(N2CCOCC2)n1` [Example 403] the EC50 [2] was less than 0.4 µM and the EC50 [3] was less than 0.4 µM.

Work on `CC(F)(F)c1nc(-c2nnc(N[C@H]3N=C(c4ccccc4)c4ccccc4NC3=O)o2)c(N2CCOCC2)s1` [Example 407] yielded an EC50 [2] of less than 0.4 µM and an EC50 [3] of less than 0.4 µM.

For `O=C1Nc2ccccc2C(c2ccccc2)=N[C@@H]1Nc1nnc(-c2nc(-c3ccncc3)sc2N2CCOCC2)o1` [Example 429], the EC50 [2] was less than 0.4 µM and the EC50 [3] was less than 0.4 µM.
